# Assay results taken from paper PMC11589570, “Critical assessment of LC3/GABARAP ligands used for degrader development and ligandability of LC3/GABARAP binding pockets” (Nature Communications, 2024).
# “And” between values parts separate entries of the source, which are not always exact repeats. Identical values can stand only once. “Also recorded” adds a separate entry of the source.
# How the values were obtained:
# LC3A = LC3A (Homo sapiens, UniProt Q9H492); test: FP assay with Cy5-labelled p62 LIR tracer (protein titration and tracer displacement); type: binding; settings: for normalized FP signal, p62 LIR tracer displacement: LC3A
# RPE1 cells = test: Cell growth assay (IncuCyte confluence over 72 h); type: cell-based
# How it was run: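 Phase confluence (% area covered by cells) imaged every 2 h for 72 h after compound addition; cells in DMEM/10% FBS, seeded 24 h before treatment. Controls were 0.1% DMSO, 250 nM Torin1 and 200 ng/mL Bafilomycin (final). Each point averages three wells.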
structure (smiles),measurement,setting,value
"Cc1ccc(C(=O)N(CCCN)[C@@H](c2nc3cc(Cl)ccc3c(=O)n2Cc2ccccc2)C(C)C)cc1 [compound 3, (R)-N-(3-aminopropyl)-N-(1-(3-benzyl-7-chloro-4-oxo-3,4-dihydroquinazolin-2-yl)−2-methylpropyl)−4-methylbenzamide]","normalized FP signal, p62 LIR tracer displacement","LC3A; log10 concentration [M] -3.82391, listed as 8F20",97.3684 and 104.737
same,"normalized FP signal, p62 LIR tracer displacement","LC3A; log10 concentration [M] -4.1549, listed as 8F20",102.105 and 103.947
same,"normalized FP signal, p62 LIR tracer displacement","LC3A; log10 concentration [M] -4.60206, listed as 8F20",101.053 and 106.053
same,"normalized FP signal, p62 LIR tracer displacement","LC3A; log10 concentration [M] -5, listed as 8F20",99.7368 and 100.789
same,"normalized FP signal, p62 LIR tracer displacement","LC3A; log10 concentration [M] -5.30103, listed as 8F20",102.105 and 98.4211
same,"normalized FP signal, p62 LIR tracer displacement","LC3A; log10 concentration [M] -5.69897, listed as 8F20",97.6316 and 96.0526
same,"normalized FP signal, p62 LIR tracer displacement","LC3A; log10 concentration [M] -6.22185, listed as 8F20",102.632 and 94.2105
same,"normalized FP signal, p62 LIR tracer displacement",LC3A; log10 concentration [M] -6.69897,101.053
same,"normalized FP signal, p62 LIR tracer displacement","LC3A; log10 concentration [M] -6.69897, listed as 8F20",99.7368
same,"normalized FP signal, p62 LIR tracer displacement","LC3A; log10 concentration [M] -7.30103, listed as 8F20",103.947 and 101.316
same,"normalized FP signal, p62 LIR tracer displacement",LC3A; log10 concentration [M] -7.79588,98.4211
same,"normalized FP signal, p62 LIR tracer displacement","LC3A; log10 concentration [M] -7.79588, listed as 8F20",93.9474
same,"normalized FP signal, p62 LIR tracer displacement",LC3A; log10 concentration [M] -8.08092,102.105
same,"normalized FP signal, p62 LIR tracer displacement","LC3A; log10 concentration [M] -8.08092, listed as 8F20",93.9474
same,RPE1 cell growth,"RPE1 cells; 500 nM, 34 h, listed as 8F20",24 and 12 and 17
same,RPE1 cell growth,"RPE1 cells; 500 nM, 36 h, listed as 8F20",23 and 14 and 18
same,RPE1 cell growth,"RPE1 cells; 500 nM, 38 h, listed as 8F20",23 and 14 and 19
same,RPE1 cell growth,"RPE1 cells; 500 nM, 40 h, listed as 8F20",11 and 16 and 21
same,RPE1 cell growth,"RPE1 cells; 500 nM, 42 h, listed as 8F20",27 and 16 and 23
same,RPE1 cell growth,"RPE1 cells; 500 nM, 44 h, listed as 8F20",29 and 17 and 23
same,RPE1 cell growth,"RPE1 cells; 500 nM, 46 h, listed as 8F20",31 and 17 and 24
same,RPE1 cell growth,"RPE1 cells; 500 nM, 48 h, listed as 8F20",32 and 17 and 25
same,RPE1 cell growth,"RPE1 cells; 500 nM, 54 h, listed as 8F20",33 and 17 and 28
same,RPE1 cell growth,"RPE1 cells; 1 uM, 34 h, listed as 8F20",15 and 25 and 13
same,RPE1 cell growth,"RPE1 cells; 1 uM, 36 h, listed as 8F20",17 and 25 and 14
same,RPE1 cell growth,"RPE1 cells; 1 uM, 38 h, listed as 8F20",17 and 24 and 15
same,RPE1 cell growth,"RPE1 cells; 1 uM, 40 h, listed as 8F20",18 and 20 and 17
same,RPE1 cell growth,"RPE1 cells; 1 uM, 42 h, listed as 8F20",22 and 27 and 16
same,RPE1 cell growth,"RPE1 cells; 1 uM, 44 h, listed as 8F20",22 and 28 and 18
same,RPE1 cell growth,"RPE1 cells; 1 uM, 46 h, listed as 8F20",22 and 28 and 17
same,RPE1 cell growth,"RPE1 cells; 1 uM, 48 h, listed as 8F20",25 and 32 and 18
same,RPE1 cell growth,"RPE1 cells; 1 uM, 50 h, listed as 8F20",24 and 32 and 20
same,RPE1 cell growth,"RPE1 cells; 1 uM, 54 h, listed as 8F20",29 and 33 and 21
same,RPE1 cell growth,"RPE1 cells; 1 uM, 56 h, listed as 8F20",28 and 34 and 21
same,RPE1 cell growth,"RPE1 cells; 1 uM, 58 h, listed as 8F20",30
same,RPE1 cell growth,"RPE1 cells; 3 uM, 34 h, listed as 8F20",25 and 15 and 17
same,RPE1 cell growth,"RPE1 cells; 3 uM, 36 h, listed as 8F20",25 and 16 and 18
same,RPE1 cell growth,"RPE1 cells; 3 uM, 38 h, listed as 8F20",26 and 17 and 18
same,RPE1 cell growth,"RPE1 cells; 3 uM, 40 h, listed as 8F20",23 and 18 and 19
same,RPE1 cell growth,"RPE1 cells; 3 uM, 42 h, listed as 8F20",29 and 18 and 23
same,RPE1 cell growth,"RPE1 cells; 3 uM, 44 h, listed as 8F20",28 and 20 and 21
same,RPE1 cell growth,"RPE1 cells; 3 uM, 46 h, listed as 8F20",31 and 19 and 22
same,RPE1 cell growth,"RPE1 cells; 3 uM, 48 h, listed as 8F20",31 and 19 and 23
same,RPE1 cell growth,"RPE1 cells; 3 uM, 50 h, listed as 8F20",31 and 20 and 23
same,RPE1 cell growth,"RPE1 cells; 3 uM, 52 h, listed as 8F20",25 and 22 and 24
same,RPE1 cell growth,"RPE1 cells; 3 uM, 54 h, listed as 8F20",31 and 21 and 25
same,RPE1 cell growth,"RPE1 cells; 3 uM, 56 h, listed as 8F20",34 and 19 and 25
same,RPE1 cell growth,"RPE1 cells; 5 uM, 40 h, listed as 8F20",27 and 15 and 24
same,effect on cell growth (confluence),"RPE1 cells; RPE1, 72 h",significant growth reduction; also recorded: strongly suppressed cellular growth
O=C1Nc2ccc(I)cc2C1=Cc1cc(Br)c(O)c(Br)c1 [compound 4],"normalized FP signal, p62 LIR tracer displacement",LC3A; log10 concentration [M] -3.82391,89.4737
same,"normalized FP signal, p62 LIR tracer displacement","LC3A; log10 concentration [M] -3.82391, listed as 10O5",75.5263
same,"normalized FP signal, p62 LIR tracer displacement","LC3A; log10 concentration [M] -4.1549, listed as 10O5",82.8947 and 95
same,"normalized FP signal, p62 LIR tracer displacement",LC3A; log10 concentration [M] -4.60206,100.526
same,"normalized FP signal, p62 LIR tracer displacement","LC3A; log10 concentration [M] -4.60206, listed as 10O5",87.3684
same,"normalized FP signal, p62 LIR tracer displacement",LC3A; log10 concentration [M] -5,94.4737
same,"normalized FP signal, p62 LIR tracer displacement","LC3A; log10 concentration [M] -5, listed as 10O5",88.6842
same,"normalized FP signal, p62 LIR tracer displacement",LC3A; log10 concentration [M] -5.30103,95.7895
same,"normalized FP signal, p62 LIR tracer displacement","LC3A; log10 concentration [M] -5.69897, listed as 10O5",88.1579 and 98.6842
same,"normalized FP signal, p62 LIR tracer displacement",LC3A; log10 concentration [M] -6.22185,93.1579
same,"normalized FP signal, p62 LIR tracer displacement","LC3A; log10 concentration [M] -6.22185, listed as 10O5",102.368
same,"normalized FP signal, p62 LIR tracer displacement","LC3A; log10 concentration [M] -6.69897, listed as 10O5",99.4737 and 97.6316
same,"normalized FP signal, p62 LIR tracer displacement","LC3A; log10 concentration [M] -7.30103, listed as 10O5",97.6316 and 100
same,"normalized FP signal, p62 LIR tracer displacement","LC3A; log10 concentration [M] -7.79588, listed as 10O5",98.6842 and 98.1579
same,"normalized FP signal, p62 LIR tracer displacement","LC3A; log10 concentration [M] -8.08092, listed as 10O5",98.9474 and 105.263
same,"compound titration LC3A (displacement curve, FP signal)","LC3A; log10 concentration [M] -5.30103, two replicate columns per compound",95.7895
same,RPE1 cell growth,"RPE1 cells; 100 nM, 0 h, listed as 10O5",16 and 14
same,RPE1 cell growth,"RPE1 cells; 100 nM, 2 h, listed as 10O5",20 and 13 and 18
same,RPE1 cell growth,"RPE1 cells; 100 nM, 4 h, listed as 10O5",23 and 14 and 19
same,RPE1 cell growth,"RPE1 cells; 100 nM, 6 h, listed as 10O5",26 and 14 and 18
same,RPE1 cell growth,"RPE1 cells; 100 nM, 8 h, listed as 10O5",27 and 16 and 19
same,RPE1 cell growth,"RPE1 cells; 100 nM, 10 h, listed as 10O5",28 and 17 and 21
same,RPE1 cell growth,"RPE1 cells; 500 nM, 0 h, listed as 10O5",20 and 18 and 16
same,RPE1 cell growth,"RPE1 cells; 500 nM, 2 h, listed as 10O5",24 and 18
same,RPE1 cell growth,"RPE1 cells; 500 nM, 4 h, listed as 10O5",27 and 19
same,RPE1 cell growth,"RPE1 cells; 500 nM, 6 h, listed as 10O5",29 and 20 and 19
same,RPE1 cell growth,"RPE1 cells; 500 nM, 8 h, listed as 10O5",32 and 21 and 20
same,RPE1 cell growth,"RPE1 cells; 500 nM, 10 h, listed as 10O5",35 and 22
same,RPE1 cell growth,"RPE1 cells; 1 uM, 0 h, listed as 10O5",15 and 13 and 19
same,RPE1 cell growth,"RPE1 cells; 1 uM, 2 h, listed as 10O5",18 and 17
same,RPE1 cell growth,"RPE1 cells; 1 uM, 4 h, listed as 10O5",20 and 18
same,RPE1 cell growth,"RPE1 cells; 1 uM, 6 h, listed as 10O5",21 and 24 and 20
same,RPE1 cell growth,"RPE1 cells; 1 uM, 8 h, listed as 10O5",21 and 25 and 22
same,RPE1 cell growth,"RPE1 cells; 1 uM, 10 h, listed as 10O5",23 and 26 and 22
same,RPE1 cell growth,"RPE1 cells; 1 uM, 12 h, listed as 10O5",25
same,RPE1 cell growth,"RPE1 cells; 3 uM, 0 h, listed as 10O5",13 and 19 and 16
same,RPE1 cell growth,"RPE1 cells; 3 uM, 2 h, listed as 10O5",17 and 19
same,RPE1 cell growth,"RPE1 cells; 3 uM, 4 h, listed as 10O5",20 and 18
same,RPE1 cell growth,"RPE1 cells; 3 uM, 6 h, listed as 10O5",23 and 21 and 19
same,RPE1 cell growth,"RPE1 cells; 3 uM, 8 h, listed as 10O5",26 and 20 and 19
same,RPE1 cell growth,"RPE1 cells; 3 uM, 10 h, listed as 10O5",27 and 24 and 21
same,RPE1 cell growth,"RPE1 cells; 3 uM, 12 h, listed as 10O5",30 and 23
same,RPE1 cell growth,"RPE1 cells; 5 uM, 0 h, listed as 10O5",16 and 15 and 17
same,RPE1 cell growth,"RPE1 cells; 5 uM, 2 h, listed as 10O5",20 and 16 and 19
same,RPE1 cell growth,"RPE1 cells; 5 uM, 4 h, listed as 10O5",21 and 17
same,RPE1 cell growth,"RPE1 cells; 5 uM, 6 h, listed as 10O5",24 and 17 and 20
same,RPE1 cell growth,"RPE1 cells; 5 uM, 8 h, listed as 10O5",29 and 19 and 21
same,RPE1 cell growth,"RPE1 cells; 5 uM, 10 h, listed as 10O5",28 and 19 and 23
same,RPE1 cell growth,"RPE1 cells; 10 uM, 0 h, listed as 10O5",16 and 21 and 17
same,RPE1 cell growth,"RPE1 cells; 10 uM, 2 h, listed as 10O5",22 and 20
same,RPE1 cell growth,"RPE1 cells; 10 uM, 4 h, listed as 10O5",25 and 21 and 22
same,RPE1 cell growth,"RPE1 cells; 10 uM, 6 h, listed as 10O5",29 and 22
same,RPE1 cell growth,"RPE1 cells; 10 uM, 8 h, listed as 10O5",30 and 26 and 23
same,RPE1 cell growth,"RPE1 cells; 10 uM, 10 h, listed as 10O5",31 and 28 and 24
